Assays:
Assay type in all cases: in vivo, C57BL/6 mice
[1] = test system: IL-6; experiment: ELISA of IL-6 in supernatants of tongue homogenates
[2] = test system: TNF-α; experiment: ELISA of TNF-α in supernatants of tongue homogenates; conditions: vs infected mice treated with saline solution
[3] = test system: IL-1β; experiment: ELISA of IL-1β in supernatants of tongue homogenates; conditions: vs infected mice treated with saline solution

In the case of `OC(Cn1cncn1)(Cn1cncn1)c1ccc(F)cc1F` [FLZ, fluconazole], the “production of IL-6” value ([1]; 3 days after infection, otherwise unchanged compared to the untreated mice) is reported as “exception”, the “production of IL-6” value ([1]; 6 days post-infection, vs infected mice treated with saline solution) is reported as “significant decrease” and the “production of TNF-α” value ([2]; 3 days after infection) is reported as “considerable inhibition”. For the same compound, the “production of TNF-α” value ([2]; 6 days post-infection) was “significant decrease”, the “production of IL-1β” value ([3]; 3 days after infection) was “considerable inhibition” and the “production of IL-1β” value ([3]; 6 days post-infection) was “significant decrease”.

From US20220047656A1, “SACCHAROMYCES CEREVISIAE YEAST STRAIN FOR THE TREATMENT AND/OR PREVENTION OF OROPHARYNGEAL CANDIDIASIS” (LESAFFRE ET COMPAGNIE, priority 2018, published 2022)
